Laboratory results taken from patent publication US10602743B2, “Method of inducing drought/salt tolerance using Bacillus megaterium” (Marrone Bio Innovations, Inc., priority 2012, dated 2020).
Like-named read-outs stand apart in the source and are kept apart here.

Test system: Bacillus megaterium strain H491
Assay: Chemical sensitivity, Biolog Phenotypic Microarray
Type: cell-based
[1] = Biolog Phenotypic Microarray, 25° C.

Structure (SMILES) | H491 susceptible to compound [1] | H491 susceptible to compound
CC(C)NCC(O)COc1cccc2ccccc12 (racemic) [D,L-Propanolol] | susceptible | 
O=C(O)CCCCC1CCSS1 (racemic) [D,L-Thioctic acid] | susceptible | 
O.c1cnc2c(c1)ccc1cccnc12 [1,10-Phenanthroline Monohydrate] | susceptible | 
On1ccccc1=S [1-Hydroxypyridine-2-thione] | susceptible | 
c1ccc(-c2ccccn2)nc1 [2,2′-Dipyridyl] | susceptible | 
CC(C)c1nc2nc(N)nc(N)c2nc1C(C)C [2,4-Diamino-6,7-diisopropylpteridine] | susceptible | 
O=[N+]([O-])c1ccc(O)c([N+](=O)[O-])c1 [2,4-Dintrophenol] | susceptible | 
O=[N+]([O-])c1ncc[nH]1 [2-Nitroimidazole] | susceptible | 
Oc1ccccc1-c1ccccc1 [2-Phenylphenol] | susceptible | 
O=C(O)c1cc([N+](=O)[O-])cc([N+](=O)[O-])c1 [3,5-Dinitrobenzoic acid] | susceptible | 
Nc1nc[nH]n1 [3-Amino-1,2,4-triazole] | susceptible | 
Cc1cc(O)cc(C)c1Cl [4-Chloro-3,5-dimethyl-phenol] | susceptible | 
O=c1cc(O)c2ccccc2o1 [4-Hydroxycoumarin] | susceptible | 
Cc1ccc2c(Cl)cc(Cl)c(O)c2n1 [5,7-Dichloro-8-hydroxyquinaldine] | susceptible | 
Oc1c(Cl)cc(Cl)c2cccnc12 [5,7-Dichloro-8-hydroxyquinoline] | susceptible | 
Oc1c(I)cc(Cl)c2cccnc12 [5-Chloro-7-iodo-8-hydroxy-quinoline] | susceptible | 
C[C@H]1O[C@@H](n2cc(F)c(=O)[nH]c2=O)[C@H](O)[C@@H]1O [5-Fluoro-5′-deoxyuridine] | susceptible | 
O=C(O)c1[nH]c(=O)[nH]c(=O)c1F [5-Fluoroorotic acid] | susceptible | 
O=c1[nH]cc(F)c(=O)[nH]1 [5-Fluorouracil] | susceptible | 

Structure (SMILES) | H491 susceptible to compound [1] | H491 susceptible to compound
NC(=O)NN=Cc1ccc([N+](=O)[O-])o1 [5-Nitro-2-furaldehyde semicarbazone] | susceptible | 
O.Sc1ncnc2nc[nH]c12 [6-Mercaptopurine monohydrate] | susceptible | 
Oc1cccc2cccnc12 [8-Hydroxyquinoline] |  | susceptible
CCCCC(CC)CNC(=N)NC(=N)NCCCCCCNC(=N)NC(=N)NCC(CC)CCCC (stereo not drawn) [Alexidine] | susceptible | 
CN(C)CCC=C1c2ccccc2CCc2ccccc21 [Amitriptyline] | susceptible | 
CC1(C)S[C@@H]2[C@H](NC(=O)[C@H](N)c3ccc(O)cc3)C(=O)N2[C@H]1C(=O)O [Amoxicillin] | susceptible | 
[Cl][Sb]([Cl])[Cl] [Antimony (III) chloride] | susceptible | 
CN[C@@H]1[C@@H](O[C@H]2O[C@H](CO)[C@@H](N)[C@H](O)[C@H]2O)OC2C[C@@H](N)[C@@H](O[C@H]3[C@H](O)[C@@H](O)[C@H](N)C[C@@H]3N)OC2[C@@H]1O (stereo partly drawn) [Apramycin] | susceptible | 
CN1[C@@H]2CC[C@H]1C[C@@H](OC(=O)C(CO)c1ccccc1)C2 (stereo partly drawn) [Atropine] |  | susceptible
CC1(C)S[C@@H]2[C@H](NC(=O)[C@H](NC(=O)N3CCNC3=O)c3ccccc3)C(=O)N2[C@H]1C(=O)O [Azlocillin] | susceptible | 
CC(C)(C)CC(C)(C)c1ccc(OCCOCC[N+](C)(C)Cc2ccccc2)cc1 [Benzethonium Chloride] | susceptible | 
OB(O)O [Boric acid] | susceptible | 
[Cl][Cd][Cl] [Cadmium chloride] | susceptible | 
Cn1c(=O)c2c(ncn2C)n(C)c1=O [Caffeine] | susceptible | 
O=C1C2CC=CCC2C(=O)N1SC(Cl)(Cl)Cl (stereo not drawn) [Captan] | susceptible | 
CC1(C)S[C@@H]2[C@H](NC(=O)C(C(=O)O)c3ccccc3)C(=O)N2[C@H]1C(=O)O (stereo partly drawn) [Carbenicillin] | susceptible | 
N#CC(C#N)=NNc1cccc(Cl)c1 [Carbonyl-cyanide m-chlorophenylhydrazone] | susceptible | 
Cc1nnc(SCC2=C(C(=O)O)N3C(=O)[C@@H](NC(=O)Cn4cnnn4)[C@H]3SC2)s1 [Cefazolin] | susceptible | 
CO[C@@]1(NC(=O)Cc2cccs2)C(=O)N2C(C(=O)O)=C(COC(N)=O)CS[C@@H]21 [Cefoxitin] | susceptible | 

Structure (SMILES) | H491 susceptible to compound [1] | H491 susceptible to compound
NC(=O)c1cc[n+](CC2=C(C(=O)O)N3C(=O)[C@@H](NC(=O)[C@@H](c4ccccc4)S(=O)(=O)[O-])[C@H]3SC2)cc1 [Cefsulodin] | susceptible | 
CC(=O)OCC1=C(C(=O)O)N2C(=O)[C@@H](NC(=O)Cc3cccs3)[C@H]2SC1 [Cephalothin] | susceptible | 
[Cl-].[Cs+] [Cesium chloride] | susceptible | 
O=C(O)CCCc1ccc(N(CCCl)CCCl)cc1 [Chlorambucil] | susceptible | 
CC(=O)O.CC(=O)O.NC(=N\CCCCCC/N=C(N)/N=C(\N)Nc1ccc(Cl)cc1)/N=C(\N)Nc1ccc(Cl)cc1 [Chlorhexidine diacetate] | susceptible | 
CN(C)CCCN1c2ccccc2Sc2ccc(Cl)cc21 [Chlorpromazine] | susceptible | 
CCn1nc(C(=O)O)c(=O)c2cc3c(cc21)OCO3 [Cinoxacin] | susceptible | 
Cc1onc(-c2ccccc2Cl)c1C(=O)N[C@@H]1C(=O)N2[C@@H]1SC(C)(C)[C@@H]2C(=O)O [Cloxacillin] | susceptible | 
[Cl-].[Cl-].[Co+2] [Cobalt (II) chloride] | susceptible | 
CN(C)c1ccc(C(=C2C=CC(=[N+](C)C)C=C2)c2ccc(N(C)C)cc2)cc1 [Crystal violet] | susceptible | 
N[C@@H]1CONC1=O [D-Cycloserine] | susceptible | 
N[C@H](CO)C(=O)O [D-Serine] | susceptible | 
CN(C)[C@@H]1C(O)=C(C(N)=O)C(=O)[C@@]2(O)C(O)=C3C(=O)c4c(O)ccc(Cl)c4[C@@H](O)[C@H]3C[C@@H]12 [Demeclocycline] | susceptible | 
CN(C)C(=O)/N=N/C(=O)N(C)C [Diamide] | susceptible | 
CN(C)S(=O)(=O)N(SC(F)(Cl)Cl)c1ccccc1 [Dichlofluanid] | susceptible | 
CCCCCCCCCCCC[N+](C)(C)C.[Br-] [Dodecyltrimethyl ammonium bromide] | susceptible | 
CCCCCCCCCCCC[N+](C)(C)CCOc1ccccc1 [Domiphen bromide] | susceptible | 
O=C(O)CN(CCN(CC(=O)O)CC(=O)O)CC(=O)O [EDTA] |  | susceptible
CCn1cc(C(=O)O)c(=O)c2cc(F)c(N3CCNCC3)nc21 [Enoxacin] | susceptible | 
